In one assay the test system is Sprague Dawley rats. As to the kind of experiment: Kainic acid stereotactic hippocampus injection model, fraction of cells damaged. The following applies: KA at 72 hours. In kind it is in vivo, rat. How it is done: CNS-102 was administered orally to Sprague Dawley rats at 12 mg/kg. After dosing, KA was stereotactically injected into the hippocampus at 24, 48, 72, 96 and 168 hours to induce neuron damage. After 24 h, hippocampus tissue was collected, stained, and imaged. The scans were analyzed by Image J to calculate the fraction of cells having KA-induced damage. Average fraction damaged in the hippocampus from ten animals for each treatment (PBS vs. 12 mg/kg CNS-102) by time (24, 48, 72, 96 and 168 hours) combination was estimated with PROC MIXED in SAS. Comparisons of the CNS-102 treatment groups to the pooled PBS treatment at the different times can be made, giving the results tabulated below.
The fraction of cells damaged in the kainic acid model was determined on 130 rats, each receiving one dose of CNS-102 at either 0, 1, 3, 6, 12 or 24 mg/kg. PBS was used for dosing at 0 mg/kg. The linear model of the log10 percent damage versus concentration is graphically shown FIG. 5.
After dosing, KA was stereotactically injected into the hippocampus at 72 hours to induce neuron damage. After 24 h, hippocampus tissue was collected, stained, and imaged. The scans were analyzed by Image J to calculate the fraction of cells having KA-induced damage.
The indicated compounds or vehicle control were orally dosed to Sprague-Dawley rats, and Kainic acid was injected. After dosing, KA was stereotactically injected into the hippocampus at 72 hours to induce neuron damage. After 24 h, hippocampus tissue was collected, stained, and imaged. The scans were analyzed by Image J to calculate the fraction of cells having KA-induced damage. Neurons damaged by Kainic acid (mean of hippocampus CA3 neurons damaged) were quantified.

In a further assay the test system is Rap1. Put plainly: Prenylation of Rap1 in Neuro2A cells, western blotting. It counts as cell-based, mouse. The following applies: 100 nM; with GGTI-298; percentage of control (GGTI only). How it is done: Mouse neuroblastoma Neuro2A cells were cultured in DMEM supplemented with 10% FBS for 24 hrs. The cells were treated with 102GGA derivative compounds for 24 hrs first before GGTase inhibitor GGTI-298 was added to the culture medium for additional 24 hr incubation. […] Both un-prenylated and total Rap1 protein bands were quantified using Image J and normalized to their respective loading control GAPDH. The results for control and each compound treatment were calculated as the ratio of normalized un-prenylated Rap1 to total Rap1, and averaged from two biological repeats of one experiment. The final results were presented as a percentage of the control treatments (GGTI only) from the same batch experiment. The data shown in the chart were averaged from two repeats of one experiment and presented as the ratio of normalized un-prenylated Rap1 to total Rapt Compound ID numbers in table refer to structures in Table 1 and Table 2.
On the technique in general: In western blotting, separated proteins are transferred to a membrane and probed.

The next assay deals with HSP70. As to the kind of experiment: HSP70 levels in Neuro 2a cells, ELISA. In kind it is cell-based, mouse. The following applies: 48 hrs compound then 24 hrs GGTI-298. How it is done:
Mouse neuroblastoma 2a cells were cultured in DMEM with 10% FBS for 24 hrs. […] After 24 hrs cells were harvested and lysates were prepared and analyzed by ELISA for HSP70. Compound ID numbers in table refer to structures in Table 1 and Table 2.

Molecules are shown by their SMILES.

`CC(C)=CCC/C(C)=C/CC/C(C)=C/CC/C(C)=C/c1cnco1` [Compound 14, 5-((1E,5E,9E)-2,6,10,14-tetramethylpentadeca-1,5,9,13-tetraen-1-yl)oxazole]: the “Mean of Hippocampus CA3 Neurons Damaged” value in the assay with Sprague Dawley rats (2 mg/kg oral) was 13%. For the same compound, the “unprenylated/total RAP1 (%)” value in the assay on Rap1 amounted to 96%. Moreover, in the assay on HSP70 (10uM), the “HSP70 level, ELISA signal (absence of compounds normalized as 1.00)” value is reported as 0.96.
Consider `CC(C)=CCC/C(C)=C/CC/C(C)=C/CCC(C)OC(=O)NCC1CCCCC1` (stereo not shown) [Compound 20h, Cyclohexylmethyl 5E, 9E-farnesyl prop-2-yl carbamate], for which the “unprenylated/total RAP1 (%)” value in the assay with Rap1 was 58%.
For the compound `CCOC(=O)/C=C(\CC)CC/C=C(\C)CC/C=C(\C)CCC=C(C)C` [Compound 131], in the assay with Rap1, the “unprenylated/total RAP1 (%)” value stood at 61%.
`CC(=O)CC/C=C(\C)CC/C=C(\C)CCC=C(C)C` [Compound 52]: the “unprenylated/total RAP1 (%)” value in the assay with Rap1 turned out to be 71%.
As to `CC(C)=CCC/C(C)=C/CC/C(C)=C/CC/C(C)=C/CC1CCCCC1=O` (stereo not shown) [Compound 84], the “unprenylated/total RAP1 (%)” value in the assay with Rap1 came out at 72%.
Turning to `CC(C)=CCC/C(C)=C/CC/C(C)=C/CC/C(C)=C/C1=N[C@@H](CC(C)C)C(=O)O1` [Compound 37d, (S)-4-isobutyl-2-((1E,5E,9E)-2,6,10,14-tetramethylpentadeca-1,5,9,13-tetraen-1-yl)oxazol-5(4H)-one], the “unprenylated/total RAP1 (%)” value in the assay with Rap1 turned out to be 128%. In addition, in the assay with HSP70 (10uM), the “HSP70 level, ELISA signal (absence of compounds normalized as 1.00)” value came out at 1.04.
For `CCCCCCNC(=O)OC/C=C(\C)CC/C=C(\C)CC/C=C(\C)CCC=C(C)C` [Compound 7e, n-Hexyl 2E,6E,10E-geranylgeranyl carbamate], the “Mean of Hippocampus CA3 Neurons Damaged” value in the assay on Sprague Dawley rats (12 mg/kg oral) was 18%. Further, the “unprenylated/total RAP1 (%)” value in the assay with Rap1 came to 64%.
In the case of `CC(C)=CCC/C(C)=C/CC/C(C)=C/CC/C(C)=C/COC(=S)NC1CC2CCC1C2` (stereo not drawn) [Compound 10j, Exo-Norbornyl 2E,6E,10E-geranylgeranyl thiocarbamate], in the assay with Rap1, the “unprenylated/total RAP1 (%)” value is reported as 91%. Also, the “HSP70 level, ELISA signal (absence of compounds normalized as 1.00)” value with HSP70 (100 nM) is 1.06; in the assay with HSP70 (10uM), 1.08.
As for `CC(C)=CCC/C(C)=C/CC/C(C)=C/CC/C(C)=C/C1=N[C@@H](Cc2ccccc2)CO1` [Compound 27g, (S)-4-benzyl-2-((1E,5E,9E)-2,6,10,14-tetramethylpentadeca-1,5,9,13-tetraen-1-yl)-4,5-dihydrooxazole], the “unprenylated/total RAP1 (%)” value with Rap1 came out at 129%. In the assay with HSP70 (10uM), the “HSP70 level, ELISA signal (absence of compounds normalized as 1.00)” value amounted to 1.11.
Take `CCCCCNC(=O)OC(C)CC/C=C(\C)CC/C=C(\C)CCC=C(C)C` (stereo not shown) [Compound 20d, n-Pentyl 5E, 9E-farnesyl prop-2-yl carbamate]: the “unprenylated/total RAP1 (%)” value with Rap1 is 67%.
Same read-out and setting: for `CC(=O)CC/C=C(\C)CC/C=C(\C)CC/C=C(\C)CC/C=C(\C)CCC=C(C)C` [Compound 132] the value was 103%.
For `CCOC(=O)CCNC(=O)OC/C=C(\C)CC/C=C(\C)CC/C=C(\C)CCC=C(C)C` [Compound 7m, Ethoxycarbonyl ethyl 2E, 6E, 10E-geranylgeranyl carbamate], the “unprenylated/total RAP1 (%)” value with Rap1 amounted to 54%. In the assay with HSP70 (100 nM), the “HSP70 level, ELISA signal (absence of compounds normalized as 1.00)” value was 0.89.
With `CCC(=O)CC/C=C(\CC)CC/C=C(\C)CC/C=C(\C)CCC=C(C)C` [Compound 128], the “unprenylated/total RAP1 (%)” value in the assay with Rap1 is 67%.
Consider `CC/C(=C\CCC(=O)C12CC3CC(CC(C3)C1)C2)CC/C=C(\C)CC/C=C(\C)CCC=C(C)C` [Compound 127], for which the “unprenylated/total RAP1 (%)” value in the assay on Rap1 was 77%.
As for `CC(C)=CCC/C(C)=C/CC/C(C)=C/CC/C(C)=C/COC(=O)C1CCCCC1` [Compound 2f, 2E, 6E, 10E-Geranylgeranyl cyclohexanoate], the “unprenylated/total RAP1 (%)” value in the assay with Rap1 is 65%.
With `CC(C)=CCC/C(C)=C/CC/C(C)=C/CC/C(C)=C/COC(=O)NCc1ccccc1` [Compound 7l, Benzyl 2E, 6E, 10E-geranylgeranyl carbamate], the “HSP70 level, ELISA signal (absence of compounds normalized as 1.00)” value in the assay with HSP70 (10uM) is given as 1.10.
`CCCCCCNC(=O)OC/C=C(\C)CC/C=C(\C)CCC=C(C)C` [Compound 8i, Hexyl 2E, 6E-farnesyl carbamate]: the “unprenylated/total RAP1 (%)” value in the assay on Rap1 is on record as 59%. The “HSP70 level, ELISA signal (absence of compounds normalized as 1.00)” value with HSP70 (10uM) is on record as 0.97.
`CC(C)=CCC/C(C)=C/CC/C(C)=C/CCC(=O)C(C)(C)C` [Compound 100]: in the assay with HSP70 (100 nM), the “HSP70 level, ELISA signal (absence of compounds normalized as 1.00)” value was determined as 1.14.
In the case of `CC(C)=CCC/C(C)=C/CC/C(C)=C/CC/C(C)=C/COC(=S)NCCN1CCOCC1` [Compound 10m, Morpholinyl-2′-ethyl 2E,6E,10E-geranylgeranyl thiocarbamate], the “unprenylated/total RAP1 (%)” value in the assay with Rap1 stood at 100%. The “HSP70 level, ELISA signal (absence of compounds normalized as 1.00)” value with HSP70 (10uM) was 1.06.
Turning to `COC(=O)[C@@H](NC(=O)OC/C=C(\C)CC/C=C(\C)CC/C=C(\C)CCC=C(C)C)C(C)C` [Compound 7j, Methyl 2-(S)-(−)-3-methylbutyrate 2E,6E,10E-geranylgeranyl Carbamate], in the assay on Sprague Dawley rats (1 mg/kg oral), the “Mean of Hippocampus CA3 Neurons Damaged” value is listed as 13%. In the assay with Rap1, the “unprenylated/total RAP1 (%)” value is given as 63%.
`CC(C)=CCC/C(C)=C/c1nc(-c2ccccc2)co1` [Compound 32, (E)-2-(2,6-dimethylhepta-1,5-dien-1-yl)-4-phenyloxazole]: the “HSP70 level, ELISA signal (absence of compounds normalized as 1.00)” value in the assay with HSP70 (10uM) amounted to 0.96.
Consider `CC(C)=CCC/C(C)=C/CC/C(C)=C/CC/C(C)=C/C1=N[C@H](CC(C)C)C(=O)O1` [Compound 37c, (R)-4-isobutyl-2-((1E,5E,9E)-2,6,10,14-tetramethylpentadeca-1,5,9,13-tetraen-1-yl)oxazol-5(4H)-one], for which the “HSP70 level, ELISA signal (absence of compounds normalized as 1.00)” value with HSP70 (100 nM) is 0.99.
On the same count and under the same terms, the value for `CC(C)=CCC/C(C)=C/CC/C(C)=C/CC/C(C)=C/CCC(C)OC(=O)NC1CCCC1` (racemic) [Compound 23c, Cyclopentyl 5E, 9E, 13E-geranylgeranyl-rac-prop-2-yl carbamate] was 0.96.
Consider `CC(C)=CCC/C(C)=C/c1nc(-c2ccncc2)no1` [Compound 35d, (E)-5-(2,6-dimethylhepta-1,5-dien-1-yl)-3-(pyridin-4-yl)-1,2,4-oxadiazole], for which, in the assay with HSP70 (10uM), the “HSP70 level, ELISA signal (absence of compounds normalized as 1.00)” value is on record as 1.05.
Same read-out and setting: for `CCOc1ccccc1C(=O)OC/C=C(\C)CC/C=C(\C)CC/C=C(\C)CCC=C(C)C` [Compound 2j, 2E, 6E, 10E-Geranylgeranyl-2′ethoxybenzoate] the value was 0.95.
Take `CCOC(=O)C(C/C=C(\C)CC/C=C(\C)CC/C=C(\C)CCC=C(C)C)C(=O)C(C)C` (stereo not shown) [Compound 77]: the “HSP70 level, ELISA signal (absence of compounds normalized as 1.00)” value in the assay with HSP70 (100 nM) is listed as 1.03.
On to `CCC(=O)CC/C=C(\C)CC/C=C(\C)CCC=C(C)C` [Compound 102], for which, in the assay on HSP70 (100 nM), the “HSP70 level, ELISA signal (absence of compounds normalized as 1.00)” value worked out at 1.04.
For the compound `CC(C)=CCC/C(C)=C/CC/C(C)=C/CC/C(C)=C/COC(=O)N1CCN(C)CC1` [Compound 40a], the “HSP70 level, ELISA signal (absence of compounds normalized as 1.00)” value in the assay with HSP70 (100 nM) was found to be 0.99.
Take `COc1cc(C(=O)OC/C=C(\C)CC/C=C(\C)CC/C=C(\C)CCC=C(C)C)cc(OC)c1OC` [Compound 2h, 2E, 6E, 10E-Geranylgeranyl-3′,4′,5′-trimethoxybenzoate]: the “HSP70 level, ELISA signal (absence of compounds normalized as 1.00)” value with HSP70 (10uM) is listed as 0.94.
On to `COc1ccc(-c2nnc(/C=C(\C)CC/C=C(\C)CC/C=C(\C)CCC=C(C)C)o2)cc1` [Compound 29c, 2-(4-methoxyphenyl)-5-((1E,5E,9E)-2,6,10,14-tetramethylpentadeca-1,5,9,13-tetraen-1-yl)-1,3,4-oxadiazole], for which, in the assay on HSP70 (10uM), the “HSP70 level, ELISA signal (absence of compounds normalized as 1.00)” value is 1.06.
For `CC(C)=CCC/C(C)=C/CC/C(C)=C/CC/C(C)=C/COC(=O)Nc1ccccn1` [Compound 40b, (2E,6E,10E)-3,7,11,15-tetramethylhexadeca-2,6,10,14-tetraen-1-yl pyridin-2-ylcarbamate], the “HSP70 level, ELISA signal (absence of compounds normalized as 1.00)” value in the assay on HSP70 (100 nM) worked out at 0.92.
As to `CC(C)=CCC/C(C)=C/CC/C(C)=C/CC/C(C)=C/COC(=O)c1cc([N+](=O)[O-])cc([N+](=O)[O-])c1` [Compound 2g, 2E, 6E, 10E-Geranylgeranyl-3′,5′-dinitrobenzoate], the “HSP70 level, ELISA signal (absence of compounds normalized as 1.00)” value with HSP70 (10uM) was 0.91.
